The target in test [1] is T1, human adrenergic β2 receptor (Homo sapiens, UniProt P07550).
T1 construct: purchased Perkin Elmer; host or cells: Sf9 cells
The test can be described thus: Human adrenergic β2 receptor binding assay (3H-CGP12177, Sf9 membranes). The note with it: membranes from Sf9 cells, 0.6 nM 3H-CGP12177, 60 minutes at room temperature. How it is done:
Test 1: Human Adrenergic β1 and β2 Receptor Binding Assays
The study of binding to human adrenergic beta1 and beta2 receptors was performed using commercial membranes prepared from Sf9 cells where they are overexpressed (Perkin Elmer). The membrane suspensions (16 μg/well for beta1 and 5 μg/well for beta2) in assay buffer (75 mM Tris/HCl with 12.5 mM MgCl2 and 2 mM EDTA pH=7.4) were incubated with 0.14 or 0.6 nM of 3H-CGP12177 (Amersham) for beta 1 and beta 2 receptors respectively in a final volume of 250 μl, in GFC Multiscreen 96 well plates (Millipore) previously treated with assay buffer containing 0.3% PEI (Sigma). Non specific binding was measured in the presence of 1 μM propanolol. Incubation was maintained for 60 minutes at room temperature and with gentle shaking. The binding reactions were terminated by filtration and washing with 2.5 volumes of Tris/HCl 50 mM pH=7.4. The affinity of each test compound to the receptor was determined by using ten different concentrations ran in duplicate. IC50s were calculated using Activity Base software from IDBS and the four parameters-log equation.

The target of test [2] is T2, human muscarinic M3 receptors (Homo sapiens, UniProt P20309).
T2 construct: purchased Perkin Elmer; host or cells: CHO-K1 cells
T2 sequence (P20309 whole entry): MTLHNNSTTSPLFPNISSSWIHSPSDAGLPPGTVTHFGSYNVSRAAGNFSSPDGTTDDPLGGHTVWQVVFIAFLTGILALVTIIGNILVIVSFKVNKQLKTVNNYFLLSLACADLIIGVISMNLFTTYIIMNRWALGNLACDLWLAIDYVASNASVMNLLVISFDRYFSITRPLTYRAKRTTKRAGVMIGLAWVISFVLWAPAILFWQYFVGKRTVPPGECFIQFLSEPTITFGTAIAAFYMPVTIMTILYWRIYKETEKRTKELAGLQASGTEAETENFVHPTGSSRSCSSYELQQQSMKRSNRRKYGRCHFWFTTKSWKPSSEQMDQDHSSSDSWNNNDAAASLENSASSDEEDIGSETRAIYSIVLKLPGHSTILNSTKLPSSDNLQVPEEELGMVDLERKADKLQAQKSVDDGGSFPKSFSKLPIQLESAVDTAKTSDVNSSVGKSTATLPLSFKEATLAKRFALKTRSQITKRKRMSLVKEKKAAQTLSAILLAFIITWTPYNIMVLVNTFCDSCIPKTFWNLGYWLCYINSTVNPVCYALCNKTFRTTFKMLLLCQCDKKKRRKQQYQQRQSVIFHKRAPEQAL
The test can be described thus: Human muscarinic M3 receptors binding assay ([3H]-NMS, CHO-K1 membranes). The settings on record: membranes from CHO-K1 cells, [3H]-NMS radioligand, two hours incubation. How it is done:
Test 2: Human Muscarinic M3 Receptors Binding Assays
The study of binding to human muscarinic M3 receptors was performed using commercial membranes (Perkin Elmer) prepared from CHO-K1 cells.
Radioligand binding experiments were conducted in 96 polypropylene well plates in a total volume of 200 μl. All reagents were dissolved in assay binding buffer (PBS with calcium and magnesium, SIGMA), except compounds that were dissolved in DMSO 100%. Non-specific binding (NSB) was measured in the presence of 1 μM atropine. [3H]-NM, used as the radioligand was incubated with membranes that express human muscarinic M3 at concentration of 4.9 μg/well.
After an incubation period of two hours with gentle shaking, 150 μl of the reaction mix were transferred to 96 GF/C filter plates (Millipore), previously treated with wash buffer (Tris 50 mM; NaCl 100 mM; pH: 7.4), containing 0.05% PEI (Sigma) during one hour. Bound and free [3H]-NMS were separated by rapid vacuum filtration in a manifold from Millipore and washed four times with ice cold wash buffer. After drying 30 min, 30 μl of OPTIPHASE Supermix were added to each well and radioactivity quantified using a Microbeta microplate scintillation counter.
The affinity of each test compound to the receptor was determined by using ten different concentrations ran in duplicate. IC50s were calculated using Activity Base software from IDBS and the four parameters-log equation.

T1 sequence (P07550 whole entry): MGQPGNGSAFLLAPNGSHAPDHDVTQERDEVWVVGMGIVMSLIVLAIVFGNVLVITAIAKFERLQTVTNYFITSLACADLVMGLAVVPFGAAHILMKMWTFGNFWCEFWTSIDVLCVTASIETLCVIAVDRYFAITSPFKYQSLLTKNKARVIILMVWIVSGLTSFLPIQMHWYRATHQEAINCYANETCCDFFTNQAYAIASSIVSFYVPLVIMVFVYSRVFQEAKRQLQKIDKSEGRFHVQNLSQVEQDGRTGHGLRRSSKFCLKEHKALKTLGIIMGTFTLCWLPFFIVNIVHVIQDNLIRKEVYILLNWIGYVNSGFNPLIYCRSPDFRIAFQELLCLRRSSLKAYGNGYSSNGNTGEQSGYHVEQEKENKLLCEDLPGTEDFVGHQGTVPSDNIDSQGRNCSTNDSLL

With `O=C(O[C@H]1CN2CCC1CC2)C1(c2cccc(CCCCn3c(=O)oc4cc(CNC[C@H](O)c5ccc(O)c6[nH]c(=O)ccc56)ccc43)c2)CCCCC1` [Example 1, (3R)-1-azabicyclo[2.2.2]oct-3-yl 1-(3-{4-[6-({[(2R)-2-hydroxy-2-(8-hydroxy-2-oxo-1,2-dihydroquinolin-5-yl)ethyl]amino}methyl)-2-oxo-1,3-benzoxazol-3(2H)-yl]butyl}phenyl)cyclohexanecarboxylate], the IC50 in test [1] was found to be 4.3 nM; in test [2] it was 1.6 nM.

With `O=C(NCCCCc1cccc(C2(C(=O)O[C@H]3CN4CCC3CC4)CCCCC2)c1)c1ccc(CNC[C@H](O)c2ccc(O)c3[nH]c(=O)ccc23)nc1` [Example 21, (3R)-1-azabicyclo[2.2.2]oct-3-yl 1-{3-[4-({[6-({[(2R)-2-hydroxy-2-(8-hydroxy-2-oxo-1,2-dihydroquinolin-5-yl)ethyl]amino}methyl)pyridin-3-yl]carbonyl}amino)butyl]phenyl}cyclohexanecarboxylate], the IC50 is 34 nM in test [1] and 0.6 nM in test [2].

As to `COc1cc(NC(=O)CCCc2cccc(C3(C(=O)O[C@H]4CN5CCC4CC5)CCCCC3)c2)c(Cl)cc1CNC[C@H](O)c1ccc(O)c2[nH]c(=O)ccc12` [Example 2, (3R)-1-azabicyclo[2.2.2]oct-3-yl 1-[3-(4-{[2-chloro-4-({[(2R)-2-hydroxy-2-(8-hydroxy-2-oxo-1,2-dihydroquinolin-5-yl)ethyl]amino}methyl)-5-methoxyphenyl]amino}-4-oxobutyl)phenyl]cyclohexanecarboxylate], the IC50 in test [1] turned out to be 3 nM; in test [2], 0.22 nM.

As for `COc1cc(C(=O)OCCCc2cccc(C3(C(=O)O[C@H]4CN5CCC4CC5)CCCCC3)c2)c(Cl)cc1CNC[C@H](O)c1ccc(O)c2[nH]c(=O)ccc12` [Example 13, 3-[3-(1-{[(3R)-1-azabicyclo[2.2.2]oct-3-yloxy]carbonyl}cyclohexyl)phenyl]propyl 2-chloro-4-({[(2R)-2-hydroxy-2-(8-hydroxy-2-oxo-1,2-dihydroquinolin-5-yl)ethyl]amino}methyl)-5-methoxybenzoate], the IC50 in test [1] worked out at 4.4 nM; in test [2] it was 0.62 nM.

Turning to `COc1cc(OCC(=O)OCCCc2cccc(C3(C(=O)O[C@H]4CN5CCC4CC5)CCCCC3)c2)c(Cl)cc1CNC[C@H](O)c1ccc(O)c2[nH]c(=O)ccc12` [Example 10, (3R)-1-azabicyclo[2.2.2]oct-3-yl 1-{3-[3-({[2-chloro-4-({[(2R)-2-hydroxy-2-(8-hydroxy-2-oxo-1,2-dihydroquinolin-5-yl)ethyl]amino}methyl)-5-methoxyphenoxy]acetyl}oxy)propyl]phenyl}cyclohexanecarboxylate], the IC50 came out at 7.3 nM in test [1] and 0.88 nM in test [2].

Consider `COc1cc(C(=O)NCCCc2cccc(C3(C(=O)O[C@H]4CN5CCC4CC5)CCCCC3)c2)c(Cl)cc1CNC[C@H](O)c1ccc(O)c2[nH]c(=O)ccc12` [Example 20, (3R)-1-azabicyclo[2.2.2]oct-3-yl 1-[3-(3-{[2-chloro-4-({[(2R)-2-hydroxy-2-(8-hydroxy-2-oxo-1,2-dihydroquinolin-5-yl)ethyl]amino}methyl)-5-methoxybenzoyl]amino}propyl)phenyl]cyclohexanecarboxylate], for which the figures for the IC50 in test [1] and in test [2] were 3.8 nM and 0.14 nM, respectively.

Take `O=C(CCCc1cccc(C2(C(=O)O[C@H]3CN4CCC3CC4)CCCCC2)c1)NCCCCCNC[C@H](O)c1ccc(O)c2[nH]c(=O)ccc12` [Example 7, (3R)-1-azabicyclo[2.2.2]oct-3-yl 1-(3-{4-[(5-{[(2R)-2-hydroxy-2-(8-hydroxy-2-oxo-1,2-dihydroquinolin-5-yl)ethyl]amino}pentyl)amino]-4-oxobutyl}phenyl)cyclo hexanecarboxylate]: the half-inhibitory concentration (IC50) in test [1] worked out at 6.7 nM; in test [2], 1.5 nM.

Consider `O=C(CCCc1cccc(C2(C(=O)O[C@H]3CN4CCC3CC4)CCCCC2)c1)Nc1ccc(CNC[C@H](O)c2ccc(O)c3[nH]c(=O)ccc23)nc1` [Example 11, (3R)-1-azabicyclo[2.2.2]oct-3-yl 1-[3-(4-{[6-({[(2R)-2-hydroxy-2-(8-hydroxy-2-oxo-1,2-dihydroquinolin-5-yl)ethyl]amino}methyl)pyridin-3-yl]amino}-4-oxobutyl)phenyl]cyclohexanecarboxylate], for which the IC50 in test [1] is 23 nM; in test [2] it was 0.49 nM.

Turning to `O=C(O[C@H]1CN2CCC1CC2)C1(c2cccc(CCCCn3nnc4cc(CNC[C@H](O)c5ccc(O)c6[nH]c(=O)ccc56)ccc43)c2)CCCCC1` [Example 5, (3R)-1-azabicyclo[2.2.2]oct-3-yl 1-(3-{4-[5-({[(2R)-2-hydroxy-2-(8-hydroxy-2-oxo-1,2-dihydroquinolin-5-yl)ethyl]amino}methyl)-1H-1,2,3-benzotriazol-1-yl]butyl}phenyl)cyclohexanecarboxylate], the concentration for half-maximal inhibition (IC50) was 28 nM in test [1] and 1.1 nM in test [2].

`COc1cc(C(=O)NCCCCc2cccc(C3(C(=O)O[C@H]4CN5CCC4CC5)CCCCC3)c2)c(Cl)cc1CNC[C@H](O)c1ccc(O)c2[nH]c(=O)ccc12` [Example 9, (3R)-1-azabicyclo[2.2.2]oct-3-yl 1-[3-(4-{[2-chloro-4-({[(2R)-2-hydroxy-2-(8-hydroxy-2-oxo-1,2-dihydroquinolin-5-yl)ethyl]amino}methyl)-5-methoxybenzoyl]amino}butyl)phenyl]cyclohexanecarboxylate]: the IC50 was found to be 3.5 nM in test [1] and 0.95 nM in test [2].

As for `COc1cc(NCC(=O)NCCCc2cccc(C3(C(=O)O[C@H]4CN5CCC4CC5)CCCCC3)c2)c(Cl)cc1CNC[C@H](O)c1ccc(O)c2[nH]c(=O)ccc12` [Example 30, (3R)-1-azabicyclo[2.2.2]oct-3-yl 1-{3-[3-({N-[2-chloro-4-({[(2R)-2-hydroxy-2-(8-hydroxy-2-oxo-1,2-dihydroquinolin-5-yl)ethyl]amino}methyl)-5-methoxyphenyl]glycyl}amino)propyl]phenyl}cyclohexanecarboxylate], the IC50 in test [1] came to 13 nM; in test [2], 1.5 nM.

For the compound `COc1cc(NC(=O)CCCc2cccc(C3(C(=O)OCC45CCN(CC4)CC5)CCCCC3)c2)c(Cl)cc1CNC[C@H](O)c1ccc(O)c2[nH]c(=O)ccc12` [Example 18, 1-azabicyclo[2.2.2]oct-4-yl methyl 1-[3-(4-{[2-chloro-4-({[(2R)-2-hydroxy-2-(8-hydroxy-2-oxo-1,2-dihydroquinolin-5-yl)ethyl]amino}methyl)-5-methoxyphenyl]amino}-4-oxobutyl)phenyl]cyclohexanecarboxylate], the results for the concentration for half-maximal inhibition (IC50) in test [1] and in test [2] were 2.3 nM and 0.14 nM, respectively.

With `COc1cc(NC(=O)CCCc2cccc(C3(C(=O)OCC4CCNCC4)CCCCC3)c2)c(Cl)cc1CNC[C@H](O)c1ccc(O)c2[nH]c(=O)ccc12` [Example 28, piperidin-4-ylmethyl 1-[3-(4-{[2-chloro-4-({[(2R)-2-hydroxy-2-(8-hydroxy-2-oxo-1,2-dihydroquinolin-5-yl)ethyl]amino}methyl)-5-methoxyphenyl]amino}-4-oxobutyl)phenyl]cyclohexanecarboxylate], the IC50 is 2.2 nM in test [1] and 0.36 nM in test [2].

For the compound `COc1cc(C(=O)N(C)CCCc2cccc(C3(C(=O)O[C@H]4CN5CCC4CC5)CCCCC3)c2)c(Cl)cc1CNC[C@H](O)c1ccc(O)c2[nH]c(=O)ccc12` [Example 12, (3R)-1-azabicyclo[2.2.2]oct-3-yl 1-(3-{3-[[2-chloro-4-({[(2R)-2-hydroxy-2-(8-hydroxy-2-oxo-1,2-dihydroquinolin-5-yl)ethyl]amino}methyl)-5-methoxybenzoyl](methyl)amino]propyl}phenyl)cyclohexanecarboxylate], the values for the IC50 in test [1] and in test [2] were 10 nM and 2.1 nM, respectively.

Turning to `O=C1c2ccc(CNC[C@H](O)c3ccc(O)c4[nH]c(=O)ccc34)cc2CN1CCCCc1cccc(C2(C(=O)O[C@H]3CN4CCC3CC4)CCCCC2)c1` [Example 23, (3R)-1-azabicyclo[2.2.2]oct-3-yl 1-(3-{4-[5-({[(2R)-2-hydroxy-2-(8-hydroxy-2-oxo-1,2-dihydroquinolin-5-yl)ethyl]amino}methyl)-1-oxo-1,3-dihydro-2H-isoindol-2-yl]butyl}phenyl)cyclohexanecarboxylate], the IC50 in test [1] was 26 nM; in test [2] it was 0.61 nM.

These data come from US10005771B2, “Bicyclic derivatives having β2 adrenergic agonist and M3 muscarinic antagonist activities” (Almirall, S.A., priority 2014, dated 2018).
